Structures are written as SMILES.

The source of these data is paper PMC8318001, “Terpene Synthase-b and Terpene Synthase-e/f Genes Produce Monoterpenes for Phalaenopsis bellina Floral Scent” (Frontiers in Plant Science, 2021).

Holding throughout (test): GC-MS of reaction products
Type in all cases: biochemical
What all share (details): 2.5 uM GDP, HEPES pH 7.4, 0.1 M KCl, 10 mM MgCl2, 10 mM DTT, 10% glycerol, 30 °C, 1 h

The target in one assay is T1, PbTPS9 (Phalaenopsis bellina, UniProt A0A8F9U9F3).
T1 construct: gene TPS9; ORF in pET-28b, His-tag at N- and C-termini, E. coli C41 (DE3) pLysS, TALON purified; tag removal not mentioned
T1 sequence (A0A8F9U9F3 1-598 limits assumed): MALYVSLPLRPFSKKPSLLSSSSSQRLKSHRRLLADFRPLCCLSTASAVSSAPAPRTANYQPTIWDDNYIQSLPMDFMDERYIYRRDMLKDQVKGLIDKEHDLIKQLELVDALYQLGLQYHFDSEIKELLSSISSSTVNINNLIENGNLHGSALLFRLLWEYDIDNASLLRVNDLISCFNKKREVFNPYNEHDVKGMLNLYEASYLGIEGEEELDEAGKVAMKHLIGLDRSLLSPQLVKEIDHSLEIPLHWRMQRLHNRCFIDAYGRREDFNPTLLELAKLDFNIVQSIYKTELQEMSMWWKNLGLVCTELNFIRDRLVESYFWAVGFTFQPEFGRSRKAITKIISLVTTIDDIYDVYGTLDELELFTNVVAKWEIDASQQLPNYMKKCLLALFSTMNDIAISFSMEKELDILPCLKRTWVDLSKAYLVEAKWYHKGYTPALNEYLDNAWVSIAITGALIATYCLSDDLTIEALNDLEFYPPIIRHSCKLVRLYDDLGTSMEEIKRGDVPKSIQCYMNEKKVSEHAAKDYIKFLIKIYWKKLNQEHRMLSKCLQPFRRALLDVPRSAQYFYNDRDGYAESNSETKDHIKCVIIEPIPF

The target of another assay is T2, PbTPS4 (Phalaenopsis bellina, UniProt A0A8F9U8Q1).
T2 construct: gene TPS4; ORF in pET-28b, His-tag at N- and C-termini, E. coli C41 (DE3) pLysS, TALON purified; tag removal not mentioned
T2 sequence (A0A8F9U8Q1 1-868): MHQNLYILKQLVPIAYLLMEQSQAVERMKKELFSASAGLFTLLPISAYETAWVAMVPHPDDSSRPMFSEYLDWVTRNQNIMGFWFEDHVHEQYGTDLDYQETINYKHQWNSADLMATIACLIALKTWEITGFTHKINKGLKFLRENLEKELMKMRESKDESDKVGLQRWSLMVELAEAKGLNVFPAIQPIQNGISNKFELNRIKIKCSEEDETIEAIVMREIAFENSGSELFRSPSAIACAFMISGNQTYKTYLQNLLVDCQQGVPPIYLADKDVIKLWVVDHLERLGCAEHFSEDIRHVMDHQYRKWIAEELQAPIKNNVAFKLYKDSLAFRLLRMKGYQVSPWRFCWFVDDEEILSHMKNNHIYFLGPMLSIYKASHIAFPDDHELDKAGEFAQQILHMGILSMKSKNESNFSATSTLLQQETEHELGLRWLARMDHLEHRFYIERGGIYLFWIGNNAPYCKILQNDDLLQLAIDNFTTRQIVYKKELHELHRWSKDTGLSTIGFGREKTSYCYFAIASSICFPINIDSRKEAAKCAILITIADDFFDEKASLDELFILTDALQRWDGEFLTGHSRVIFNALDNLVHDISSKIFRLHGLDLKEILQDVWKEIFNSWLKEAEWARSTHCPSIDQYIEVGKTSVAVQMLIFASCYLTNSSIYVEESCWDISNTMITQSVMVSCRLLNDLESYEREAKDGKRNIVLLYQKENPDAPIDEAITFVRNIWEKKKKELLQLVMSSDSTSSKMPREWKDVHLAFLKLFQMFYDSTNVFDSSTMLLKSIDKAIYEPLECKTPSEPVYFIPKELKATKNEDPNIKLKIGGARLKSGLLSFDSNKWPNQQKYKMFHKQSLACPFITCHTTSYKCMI

For a further assay, the target named is T3, PbTPS5 (Phalaenopsis bellina, UniProt A0A8F9UAD9).
T3 construct: gene TPS5; tag removal not mentioned
T3 sequence (A0A8F9UAD9 1-605 limits assumed): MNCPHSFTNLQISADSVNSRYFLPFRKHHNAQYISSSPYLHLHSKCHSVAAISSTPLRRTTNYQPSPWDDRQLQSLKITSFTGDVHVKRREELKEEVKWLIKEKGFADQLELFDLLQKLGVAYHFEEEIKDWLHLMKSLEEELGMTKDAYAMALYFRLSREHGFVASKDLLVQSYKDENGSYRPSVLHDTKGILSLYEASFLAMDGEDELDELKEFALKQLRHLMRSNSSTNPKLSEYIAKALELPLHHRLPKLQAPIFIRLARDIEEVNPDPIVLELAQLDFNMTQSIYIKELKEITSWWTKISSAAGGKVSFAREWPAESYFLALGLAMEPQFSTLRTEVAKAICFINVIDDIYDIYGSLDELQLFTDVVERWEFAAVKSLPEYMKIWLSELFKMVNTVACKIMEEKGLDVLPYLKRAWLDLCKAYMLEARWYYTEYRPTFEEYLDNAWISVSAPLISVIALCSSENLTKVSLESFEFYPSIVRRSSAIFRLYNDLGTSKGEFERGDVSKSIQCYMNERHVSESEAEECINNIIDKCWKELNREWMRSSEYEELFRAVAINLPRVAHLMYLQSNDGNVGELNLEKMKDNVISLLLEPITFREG

The target of a further assay is T4, PbTPS3 (Phalaenopsis bellina, UniProt A0A8F9U8Q4).
T4 construct: gene TPS3; ORF in pET-28b, His-tag at N- and C-termini, E. coli C41 (DE3) pLysS, TALON purified; tag removal not mentioned
T4 sequence (A0A8F9U8Q4 1-769): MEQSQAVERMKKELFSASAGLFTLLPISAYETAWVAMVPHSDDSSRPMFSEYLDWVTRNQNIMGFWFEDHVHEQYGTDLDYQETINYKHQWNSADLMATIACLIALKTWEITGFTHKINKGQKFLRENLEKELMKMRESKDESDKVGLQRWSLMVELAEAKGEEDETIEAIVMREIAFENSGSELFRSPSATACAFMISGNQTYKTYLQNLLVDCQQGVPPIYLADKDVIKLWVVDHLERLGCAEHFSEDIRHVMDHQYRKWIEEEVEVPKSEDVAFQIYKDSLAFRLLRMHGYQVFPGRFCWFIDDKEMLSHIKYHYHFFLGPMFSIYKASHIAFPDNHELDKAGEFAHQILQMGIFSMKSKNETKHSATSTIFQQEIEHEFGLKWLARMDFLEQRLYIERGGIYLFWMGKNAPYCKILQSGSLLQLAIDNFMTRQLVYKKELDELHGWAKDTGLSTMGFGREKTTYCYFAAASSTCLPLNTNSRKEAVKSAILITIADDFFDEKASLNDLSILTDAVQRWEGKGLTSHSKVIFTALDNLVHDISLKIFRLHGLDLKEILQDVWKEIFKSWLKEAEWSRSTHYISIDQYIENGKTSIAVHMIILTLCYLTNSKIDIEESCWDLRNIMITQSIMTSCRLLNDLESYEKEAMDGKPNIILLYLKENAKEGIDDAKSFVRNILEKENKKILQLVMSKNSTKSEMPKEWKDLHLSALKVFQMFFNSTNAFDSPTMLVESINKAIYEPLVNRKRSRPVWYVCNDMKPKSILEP

Take `CC(C)=CCC/C(C)=C/COP(=O)(O)OP(=O)(O)O` [GDP]: the “GC-MS of reaction products” value at PbTPS9 is “The product of PbTPS9 was geraniol (Figure 5B)”; on PbTPS4, “PbTPS4 was a linalool synthase and used GDP as the substrate (Figure 6B)”; on PbTPS5, “Geraniol was detected as the main product catalyzed by PbTPS5 (Figure 5A)”; on PbTPS3, “PbTPS3 was a dual enzyme as a linalool/(β)-cis-ocimene synthase (Figure 6A)”.
